In the NIST ThermoML archive (doi:10.1021/acs.jced.5b00105):
± gives the expanded uncertainty stated by the source.

Test: xn = mol fraction of the nth substance listed
Conditions: for surface tension liquid-gas: Drop volume; for viscosity / mass density: 100 kPa, Liquid; for viscosity: Concentric cylinders viscometry; for mass density: Vibrating tube method

CC1CCCCC1 [methylcyclohexane] + CC(C)CC(C)(C)C
Conditions	mass density [kg/m3]	surface tension liquid-gas [mN/m]	viscosity [mPa·s]
293.15 K, x1 = 0.0999	–	19.34 ± 0.24	–
293.15 K, x1 = 0.1012	698.32 ± 0.19	–	0.532 ± 0.085
293.15 K, x1 = 0.1999	–	19.77 ± 0.24	–
293.15 K, x1 = 0.2003	704.87 ± 0.18	–	0.546 ± 0.088
293.15 K, x1 = 0.2997	–	20.13 ± 0.24	–
293.15 K, x1 = 0.3001	711.73 ± 0.18	–	0.562 ± 0.09
293.15 K, x1 = 0.4	–	20.54 ± 0.24	–
293.15 K, x1 = 0.4019	719.01 ± 0.17	–	0.58 ± 0.093
293.15 K, x1 = 0.5	–	20.99 ± 0.24	–
293.15 K, x1 = 0.5008	726.4 ± 0.17	–	0.599 ± 0.096
293.15 K, x1 = 0.6	734.15 ± 0.17	21.52 ± 0.24	0.62 ± 0.099
293.15 K, x1 = 0.6998	742.32 ± 0.16	–	0.644 ± 0.1
293.15 K, x1 = 0.7001	–	22.1 ± 0.24	–
293.15 K, x1 = 0.7999	–	22.64 ± 0.24	–
293.15 K, x1 = 0.8	750.91 ± 0.16	–	0.671 ± 0.11
293.15 K, x1 = 0.9	759.88 ± 0.16	23.29 ± 0.24	0.701 ± 0.11
293.15 K, x1 = 1	769.35 ± 0.15	23.87 ± 0.24	0.735 ± 0.12
298.15 K, x1 = 0.0999	–	18.75 ± 0.24	–
298.15 K, x1 = 0.1012	694.22 ± 0.19	–	0.506 ± 0.081
298.15 K, x1 = 0.1999	–	19.1 ± 0.24	–
298.15 K, x1 = 0.2003	700.73 ± 0.18	–	0.519 ± 0.083
298.15 K, x1 = 0.2997	–	19.44 ± 0.24	–
298.15 K, x1 = 0.3001	707.58 ± 0.18	–	0.533 ± 0.085
298.15 K, x1 = 0.4	–	19.84 ± 0.24	–
298.15 K, x1 = 0.4019	714.85 ± 0.17	–	0.549 ± 0.088
298.15 K, x1 = 0.5	–	20.2 ± 0.24	–
298.15 K, x1 = 0.5008	722.23 ± 0.17	–	0.566 ± 0.091
298.15 K, x1 = 0.6	729.96 ± 0.17	20.69 ± 0.24	0.585 ± 0.094
298.15 K, x1 = 0.6998	738.11 ± 0.16	–	0.606 ± 0.097
298.15 K, x1 = 0.7001	–	21.26 ± 0.24	–
298.15 K, x1 = 0.7999	–	21.81 ± 0.24	–
298.15 K, x1 = 0.8	746.67 ± 0.16	–	0.631 ± 0.1
298.15 K, x1 = 0.9	755.61 ± 0.16	22.41 ± 0.24	0.66 ± 0.11
298.15 K, x1 = 1	765.05 ± 0.15	23.02 ± 0.24	0.692 ± 0.11
303.15 K, x1 = 0.0999	–	18.32 ± 0.24	–
303.15 K, x1 = 0.1012	690.06 ± 0.19	–	0.482 ± 0.077
303.15 K, x1 = 0.1999	–	18.62 ± 0.23	–
303.15 K, x1 = 0.2003	696.57 ± 0.18	–	0.494 ± 0.079
303.15 K, x1 = 0.2997	–	18.99 ± 0.23	–
303.15 K, x1 = 0.3001	703.4 ± 0.18	–	0.507 ± 0.081
303.15 K, x1 = 0.4	–	19.38 ± 0.23	–
303.15 K, x1 = 0.4019	710.66 ± 0.18	–	0.521 ± 0.084
303.15 K, x1 = 0.5	–	19.73 ± 0.23	–
303.15 K, x1 = 0.5008	718.01 ± 0.17	–	0.537 ± 0.086
303.15 K, x1 = 0.6	725.72 ± 0.17	20.21 ± 0.24	0.554 ± 0.089
303.15 K, x1 = 0.6998	733.85 ± 0.16	–	0.573 ± 0.092
303.15 K, x1 = 0.7001	–	20.72 ± 0.24	–
303.15 K, x1 = 0.7999	–	21.32 ± 0.24	–
303.15 K, x1 = 0.8	742.38 ± 0.16	–	0.595 ± 0.095
303.15 K, x1 = 0.9	751.3 ± 0.16	21.92 ± 0.24	0.621 ± 0.1
303.15 K, x1 = 1	760.71 ± 0.15	22.55 ± 0.24	0.651 ± 0.1
308.15 K, x1 = 0.0999	–	17.84 ± 0.23	–
308.15 K, x1 = 0.1012	685.89 ± 0.19	–	0.46 ± 0.074
308.15 K, x1 = 0.1999	–	18.12 ± 0.23	–
308.15 K, x1 = 0.2003	692.38 ± 0.18	–	0.471 ± 0.076
308.15 K, x1 = 0.2997	–	18.43 ± 0.23	–
308.15 K, x1 = 0.3001	699.2 ± 0.18	–	0.483 ± 0.077
308.15 K, x1 = 0.4	–	18.8 ± 0.23	–
308.15 K, x1 = 0.4019	706.44 ± 0.18	–	0.496 ± 0.08
308.15 K, x1 = 0.5	–	19.19 ± 0.23	–
308.15 K, x1 = 0.5008	713.78 ± 0.17	–	0.51 ± 0.082
308.15 K, x1 = 0.6	721.47 ± 0.17	19.64 ± 0.23	0.525 ± 0.084
308.15 K, x1 = 0.6998	729.57 ± 0.17	–	0.543 ± 0.087
308.15 K, x1 = 0.7001	–	20.23 ± 0.23	–
308.15 K, x1 = 0.7999	–	20.75 ± 0.24	–
308.15 K, x1 = 0.8	738.08 ± 0.16	–	0.564 ± 0.09
308.15 K, x1 = 0.9	746.98 ± 0.16	21.44 ± 0.24	0.587 ± 0.094
308.15 K, x1 = 1	756.37 ± 0.15	22.12 ± 0.24	0.615 ± 0.099
313.15 K, x1 = 0.1012	681.69 ± 0.19	–	0.44 ± 0.071
313.15 K, x1 = 0.2003	688.17 ± 0.19	–	0.45 ± 0.072
313.15 K, x1 = 0.3001	694.97 ± 0.18	–	0.461 ± 0.074
313.15 K, x1 = 0.4019	702.2 ± 0.18	–	0.473 ± 0.076
313.15 K, x1 = 0.5008	709.52 ± 0.17	–	0.486 ± 0.078
313.15 K, x1 = 0.6	717.19 ± 0.17	–	0.5 ± 0.08
313.15 K, x1 = 0.6998	725.27 ± 0.17	–	0.516 ± 0.083
313.15 K, x1 = 0.8	733.75 ± 0.16	–	0.535 ± 0.086
313.15 K, x1 = 0.9	742.63 ± 0.16	–	0.556 ± 0.089
313.15 K, x1 = 1	752 ± 0.16	–	0.58 ± 0.093
318.15 K, x1 = 0.1012	677.34 ± 0.19	–	0.422 ± 0.068
318.15 K, x1 = 0.2003	683.85 ± 0.19	–	0.432 ± 0.069
318.15 K, x1 = 0.3001	690.64 ± 0.18	–	0.443 ± 0.071
318.15 K, x1 = 0.4019	697.75 ± 0.18	–	0.453 ± 0.073
318.15 K, x1 = 0.5008	705.13 ± 0.17	–	0.465 ± 0.075
318.15 K, x1 = 0.6	712.85 ± 0.17	–	0.478 ± 0.077
318.15 K, x1 = 0.6998	720.93 ± 0.17	–	0.493 ± 0.079
318.15 K, x1 = 0.8	729.36 ± 0.16	–	0.509 ± 0.082
318.15 K, x1 = 0.9	738.24 ± 0.16	–	0.528 ± 0.085
318.15 K, x1 = 1	747.58 ± 0.16	–	0.549 ± 0.088
323.15 K, x1 = 0.1012	673.08 ± 0.19	–	0.406 ± 0.065
323.15 K, x1 = 0.2003	679.58 ± 0.19	–	0.415 ± 0.067
323.15 K, x1 = 0.3001	686.35 ± 0.18	–	0.426 ± 0.068
323.15 K, x1 = 0.4019	693.44 ± 0.18	–	0.435 ± 0.07
323.15 K, x1 = 0.5008	700.81 ± 0.18	–	0.446 ± 0.072
323.15 K, x1 = 0.6	708.52 ± 0.17	–	0.458 ± 0.073
323.15 K, x1 = 0.6998	716.59 ± 0.17	–	0.471 ± 0.076
323.15 K, x1 = 0.8	725.08 ± 0.17	–	0.486 ± 0.078
323.15 K, x1 = 0.9	733.86 ± 0.16	–	0.503 ± 0.081
323.15 K, x1 = 1	743.17 ± 0.16	–	0.522 ± 0.084
333.15 K, x1 = 0.1012	664.46 ± 0.19	–	0.378 ± 0.061
333.15 K, x1 = 0.2003	670.92 ± 0.19	–	0.386 ± 0.062
333.15 K, x1 = 0.3001	677.66 ± 0.19	–	0.395 ± 0.063
333.15 K, x1 = 0.4019	684.72 ± 0.18	–	0.402 ± 0.064
333.15 K, x1 = 0.5008	692.07 ± 0.18	–	0.411 ± 0.066
333.15 K, x1 = 0.6	699.74 ± 0.17	–	0.421 ± 0.068
333.15 K, x1 = 0.6998	707.79 ± 0.17	–	0.433 ± 0.069
333.15 K, x1 = 0.8	716.25 ± 0.17	–	0.445 ± 0.071
333.15 K, x1 = 0.9	725.03 ± 0.16	–	0.46 ± 0.074
333.15 K, x1 = 1	734.29 ± 0.16	–	0.476 ± 0.076
343.15 K, x1 = 0.1012	655.69 ± 0.2	–	0.355 ± 0.057
343.15 K, x1 = 0.2003	662.12 ± 0.19	–	0.361 ± 0.058
343.15 K, x1 = 0.3001	668.84 ± 0.19	–	0.368 ± 0.059
343.15 K, x1 = 0.4019	675.87 ± 0.18	–	0.375 ± 0.06
343.15 K, x1 = 0.5008	683.23 ± 0.18	–	0.383 ± 0.061
343.15 K, x1 = 0.6	690.9 ± 0.18	–	0.391 ± 0.063
343.15 K, x1 = 0.6998	698.9 ± 0.17	–	0.401 ± 0.064
343.15 K, x1 = 0.8	707.33 ± 0.17	–	0.411 ± 0.066
343.15 K, x1 = 0.9	716.08 ± 0.17	–	0.424 ± 0.068
343.15 K, x1 = 1	725.31 ± 0.16	–	0.439 ± 0.07
